The values below come from ChEMBL document CHEMBL1133851, “Novel spermine-amino acid conjugates and basic tripeptides enhance cleavage of the hairpin ribozyme at low magnesium ion concentration” (Bioorg Med Chem Lett, 2001).

Where a SMILES comes first, the peptide text is derived from it. [ ]: non-standard residue; d: D form. ξ: configuration not given here. Dab = NCC[C@H](N)C(=O)O; Dap = NC[C@H](N)C(=O)O; ξDab = NCCC(N)C(=O)O; ξDap = NCC(N)C(=O)O

One assay deals with Hairpin ribozyme RNA.
Description: Cleavage rate against hairpin ribozyme at 2 mM, in presence of 0.5 uM magnesium ions
With `NCCC(NC(=O)[C@@H](N)CN)C(=O)O` (some centres not stated) (H-[Dap]-[ξDab]-OH), the K obs was 0.026.
`NCC[C@@H](N)C(=O)O` came in with a K obs of 0.023.
In turn, `NCC[C@H](N)C(=O)O` displayed a K obs of 0.085.
On the same count and under the same terms, the value for `N=C(N)NCCC[C@H](N)C(=O)O` was 0.016; that for `NCC(NC(=O)[C@@H](N)CN)C(=O)O` (some centres not stated) (H-[Dap]-[ξDap]-OH) was 0.024.
In the case of `NCC[C@H](N)C(=O)NC(CN)C(=O)O` (some centres not stated) (H-[Dab]-[ξDap]-OH), the K obs came out at 0.02.
The compound `NCCCC[C@@H](N)C(=O)O` had a K obs of 0.004.
Consider `NCCCNCCCCNCCCN`, for which the K obs worked out at 0.073.
The compound `NCCCC(=O)O` registered a K obs of 0.0088.
The compound `N[C@@H](Cc1c[nH]cn1)C(=O)O` came in with a K obs of 0.037.
On to `NCCC(NC(=O)[C@@H](N)CCN)C(=O)O` (some centres not stated) (H-[Dab]-[ξDab]-OH), for which the K obs turned out to be 0.021.
The compound `NC[C@H](N)C(=O)O` gave a K obs of 0.061.
Turning to `NCC(=O)O`, the K obs came out at 0.017.
As to `N[C@H](Cc1c[nH]cn1)C(=O)O`, the K obs was found to be 0.0085.
For the compound `NCCC(=O)O`, the K obs is 0.018.
In turn, `NCCCC[C@H](N)C(=O)O` registered a K obs of 0.016.
`NC[C@@H](N)C(=O)O` showed a K obs of 0.02.
`NCCC[C@@H](N)C(=O)O` yielded a K obs of 0.0086.

The subject of the next assay is Hairpin ribozyme RNA. The source holds these as a separate data set.
Description: Cleavage rate against hairpin ribozyme at 5 mM with 0.5 uM magnesium ions
In turn, `NCC[C@@H](N)C(=O)O` came in with a K obs of 0.027.
For `NCC[C@H](N)C(=O)O`, the K obs was 0.08.
With `N=C(N)NCCC[C@H](N)C(=O)O`, the K obs is 0.034.
The compound `NCCCC[C@@H](N)C(=O)O` registered a K obs of 0.026.
As for `NCCCNCCCCNCCCN`, the K obs is 0.065.
On the same count and under the same terms, as for `NCCCC(=O)O`, the figure is 0.023; as for `N[C@@H](Cc1c[nH]cn1)C(=O)O`, 0.013; as for `NC[C@H](N)C(=O)O`, 0.045.
Compound `NCC(=O)O` yielded a K obs of 0.03.
Regarding `N[C@H](Cc1c[nH]cn1)C(=O)O`, the K obs was found to be 0.026.
As to `NCCC(=O)O`, the K obs is 0.03.
Consider `NCCCC[C@H](N)C(=O)O`, for which the K obs came out at 0.013.
In turn, `NC[C@@H](N)C(=O)O` showed a K obs of 0.022.
Regarding `NCCC[C@@H](N)C(=O)O`, the K obs amounted to 0.034.
